Experimental data as given in ChEMBL document CHEMBL4346717, “1,2,4-Triazole-quinoline/quinolone hybrids as potential anti-bacterial agents” (Eur J Med Chem, 2019).

Experiments:
Escherichia coli [1] = assay: Antibacterial activity against Escherichia coli; format: functional
Pseudomonas aeruginosa [2] = assay: Antibacterial activity against Pseudomonas aeruginosa; format: functional
[3] = test system: Yersinia pseudotuberculosis; assay: Antibacterial activity against Yersinia pseudotuberculosis; format: functional
Staphylococcus aureus [4] = assay: Antibacterial activity against Staphylococcus aureus; format: functional
Enterococcus faecalis = assay: Antibacterial activity against Enterococcus faecalis; format: functional
Bacillus cereus [5] = assay: Antibacterial activity against Bacillus cereus; format: functional
[6] = test system: Mycolicibacterium smegmatis; assay: Antibacterial activity against Mycobacterium smegmatis; format: functional
[7] = test system: Staphylococcus epidermidis; assay: Antibacterial activity against Staphylococcus epidermidis assessed as zone of inhibition at 100 ug/ml; conditions: read-out: IZ
Bacillus cereus [8] = assay: Antibacterial activity against Bacillus cereus assessed as zone of inhibition at 100 ug/ml; format: functional; conditions: read-out: IZ
Escherichia coli [9] = assay: Antibacterial activity against Escherichia coli assessed as zone of inhibition at 100 ug/ml; conditions: read-out: IZ
Pseudomonas aeruginosa [10] = assay: Antibacterial activity against Pseudomonas aeruginosa assessed as zone of inhibition at 100 ug/ml; conditions: read-out: IZ
Staphylococcus aureus [11] = assay: Antibacterial activity against methicillin-resistant Staphylococcus aureus; format: functional
Escherichia coli [12] = assay: Antibacterial activity against multi drug-resistant Escherichia coli; format: functional
Aspergillus niger = assay: Antifungal activity against Aspergillus niger assessed as zone of inhibition at 100 ug/ml; format: functional; conditions: read-out: IZ
Aspergillus fumigatus = assay: Antifungal activity against Aspergillus fumigatus assessed as zone of inhibition at 100 ug/ml; format: functional; conditions: read-out: IZ
Staphylococcus aureus [13] = assay: Antibacterial activity against Staphylococcus aureus after 3 to 7 days by cup diffusion method; format: functional
Bacillus subtilis [14] = assay: Antibacterial activity against Bacillus subtilis after 3 to 7 days by cup diffusion method; format: functional
Escherichia coli [15] = assay: Antibacterial activity against Escherichia coli after 3 to 7 days by cup diffusion method; format: functional
Pseudomonas aeruginosa [16] = assay: Antibacterial activity against Pseudomonas aeruginosa after 3 to 7 days by cup diffusion method; format: functional
Mycolicibacterium phlei [17] = assay: Antibacterial activity against Mycobacterium phlei clinical isolate after 3 to 7 days by cup diffusion method; format: functional
[18] = test system: Aggregatibacter actinomycetemcomitans; assay: Antibacterial activity against Aggregatibacter actinomycetemcomitans ATCC 29524 after 3 to 7 days by cup diffusion method; format: functional
Staphylococcus aureus [19] = assay: Antibacterial activity against Staphylococcus aureus assessed as zone of inhibition at 10 mg/ml after 3 to 7 days by cup diffusion method; format: functional; conditions: read-out: IZ
Bacillus subtilis [20] = assay: Antibacterial activity against Bacillus subtilis assessed as zone of inhibition at 10 mg/ml after 3 to 7 days by cup diffusion method; format: functional; conditions: read-out: IZ
Escherichia coli [21] = assay: Antibacterial activity against Escherichia coli assessed as zone of inhibition at 10 mg/ml after 3 to 7 days by cup diffusion method; format: functional; conditions: read-out: IZ
Pseudomonas aeruginosa [22] = assay: Antibacterial activity against Pseudomonas aeruginosa assessed as zone of inhibition at 10 mg/ml after 3 to 7 days by cup diffusion method; format: functional; conditions: read-out: IZ
Mycolicibacterium phlei [23] = assay: Antibacterial activity against Mycobacterium phlei clinical isolate assessed as zone of inhibition at 10 mg/ml after 3 to 7 days by cup diffusion method; format: functional; conditions: read-out: IZ
[24] = test system: Aggregatibacter actinomycetemcomitans; assay: Antibacterial activity against Aggregatibacter actinomycetemcomitans ATCC 29524 assessed as zone of inhibition at 10 mg/ml after 3 to 7 days by cup diffusion method; format: functional; conditions: read-out: IZ

CC1(C)S[C@@H]2[C@H](NC(=O)[C@H](N)c3ccccc3)C(=O)N2[C@H]1C(=O)O [AMPICILLIN]
10 to 128 µg/mL: MIC (Escherichia coli [1]) | MIC (Pseudomonas aeruginosa [2]) | MIC [3] | MIC (Staphylococcus aureus [4]) | MIC (Enterococcus faecalis) | MIC (Bacillus cereus [5]) | MIC [6]

Nn1c(S)nnc1Cn1c(=O)cc(-c2ccccc2)c2cccc(Cl)c21
8 to 256 µg/mL: MIC (Escherichia coli [1]) | MIC (Pseudomonas aeruginosa [2]) | MIC (Staphylococcus aureus [4])

Nn1c(S)nnc1Cn1c(=O)cc(-c2ccccc2)c2ccc(Cl)cc21
8 to 256 µg/mL: MIC (Escherichia coli [1]) | MIC (Pseudomonas aeruginosa [2]) | MIC (Staphylococcus aureus [4])

Cc1cccc2c(-c3ccccc3)cc(=O)n(Cc3nnc(S)n3N)c12
8 to 256 µg/mL: MIC (Escherichia coli [1]) | MIC (Pseudomonas aeruginosa [2]) | MIC (Staphylococcus aureus [4])

O=C(O)c1cn(C2CC2)c2cc(N3CCNCC3)c(F)cc2c1=O [CIPROFLOXACIN]
23 to 29 mm: zone of inhibition at 100 µg/mL [7] | zone of inhibition at 100 µg/mL (Bacillus cereus [8]) | zone of inhibition at 100 µg/mL (Escherichia coli [9]) | zone of inhibition at 100 µg/mL (Pseudomonas aeruginosa [10])
0.25 to 8 µg/mL: MIC (Staphylococcus aureus [11]) | MIC (Escherichia coli [12])

CCn1cc(C(=O)O)c(=O)c2cc(F)c(N3CCN(Cn4nc(N5CCN(c6ccc([N+](=O)[O-])cc6)CC5)n(-c5ccccc5)c4=O)CC3)cc21
0.03 to 0.99 µg/mL: MIC (Escherichia coli [1]) | MIC (Pseudomonas aeruginosa [2]) | MIC [3] | MIC (Staphylococcus aureus [4]) | MIC (Enterococcus faecalis) | MIC (Bacillus cereus [5]) | MIC [6]

OC(Cn1cncn1)(Cn1cncn1)c1ccc(F)cc1F [FLUCONAZOLE]
26 mm: zone of inhibition at 100 µg/mL (Aspergillus fumigatus)
29 mm: zone of inhibition at 100 µg/mL (Aspergillus niger)

CCn1cc(C(=O)O)c(=O)c2cc(F)c(N3CCN(Cn4nc(N5CCN(c6ccc([N+](=O)[O-])cc6)CC5)n(Cc5ccccc5)c4=O)CC3)cc21
0.03 to 0.99 µg/mL: MIC (Escherichia coli [1]) | MIC (Pseudomonas aeruginosa [2]) | MIC [3] | MIC (Staphylococcus aureus [4]) | MIC (Enterococcus faecalis) | MIC (Bacillus cereus [5]) | MIC [6]

Cc1ccc2c(-c3ccccc3)cc(=O)n(Cc3nnc(S)n3N)c2c1
8 to 256 µg/mL: MIC (Escherichia coli [1]) | MIC (Pseudomonas aeruginosa [2]) | MIC (Staphylococcus aureus [4])

CCn1c(N2CCN(c3ccc([N+](=O)[O-])cc3)CC2)nn(CN2CCN(c3cc4c(cc3F)c(=O)c(C(=O)O)cn4CC)CC2)c1=S
0.03 to 0.99 µg/mL: MIC (Escherichia coli [1]) | MIC (Pseudomonas aeruginosa [2]) | MIC [3] | MIC (Staphylococcus aureus [4]) | MIC (Enterococcus faecalis) | MIC (Bacillus cereus [5]) | MIC [6]

CCn1cc(C(=O)O)c(=O)c2cc(F)c(N3CCN(Cn4nc(N5CCN(c6ccc([N+](=O)[O-])cc6)CC5)n(-c5ccc(F)cc5)c4=S)CC3)cc21
0.03 to 0.99 µg/mL: MIC (Escherichia coli [1]) | MIC (Pseudomonas aeruginosa [2]) | MIC [3] | MIC (Staphylococcus aureus [4]) | MIC (Enterococcus faecalis) | MIC (Bacillus cereus [5]) | MIC [6]

CCn1cc(-c2nc(/N=C/c3ccccc3)n[nH]2)c(=O)c2ccc(C)nc21
20 to 40 mm: zone of inhibition at 10000 µg/mL (Staphylococcus aureus [19]) | zone of inhibition at 10000 µg/mL (Bacillus subtilis [20]) | zone of inhibition at 10000 µg/mL (Escherichia coli [21]) | zone of inhibition at 10000 µg/mL (Pseudomonas aeruginosa [22]) | zone of inhibition at 10000 µg/mL (Mycolicibacterium phlei [23]) | zone of inhibition at 10000 µg/mL [24]
>=0.031 - 32 ug ml-1: MIC (Staphylococcus aureus [13]) | MIC (Bacillus subtilis [14]) | MIC (Escherichia coli [15]) | MIC (Pseudomonas aeruginosa [16]) | MIC (Mycolicibacterium phlei [17]) | MIC [18]

COc1cccc2c(-c3ccccc3)cc(=O)n(Cc3nnc(S)n3N)c12
8 to 256 µg/mL: MIC (Escherichia coli [1]) | MIC (Pseudomonas aeruginosa [2]) | MIC (Staphylococcus aureus [4])
